According to patent US9102648B1, “Bioavailable diacylhydrazine ligands for modulating the expression of exogenous genes via an ecdysone receptor complex” (Intrexon Corporation, priority 2003, dated 2015):
Read-outs that look alike come from different tables or passages of the source.

Assays:
[1] = molecular target: T1, Bombyx mori EcR (VP16 fusion, CVBE switch construct) (Bombyx mori, UniProt P49881); assay: Z3 Assay (HEK-293 cells with CVBE and 6XEcRE LacZ, β-galactosidase reporter); details: for Fold Induction, Z3 Assay, 3.3 uM: 3.3 uM ligand; for Fold Induction, Z3 Assay, 3.3 uM / Fold Induction, Z3 Assay, 33 uM: ligand treated / DMSO treated cells; for Fold Induction, Z3 Assay, 33 uM: 33 uM ligand; for Z3 assay Rel Max FI: maximum fold induction at any concentration relative to that of GS-E ligand; for fold induction at 3.3 µM: HEK293, read-out: Fold Induction, Z3 Assay, 3.3 uM; for fold induction at 33 µM: HEK293, read-out: Fold Induction, Z3 Assay, 33 uM
T1 sequence (P49881 86-606): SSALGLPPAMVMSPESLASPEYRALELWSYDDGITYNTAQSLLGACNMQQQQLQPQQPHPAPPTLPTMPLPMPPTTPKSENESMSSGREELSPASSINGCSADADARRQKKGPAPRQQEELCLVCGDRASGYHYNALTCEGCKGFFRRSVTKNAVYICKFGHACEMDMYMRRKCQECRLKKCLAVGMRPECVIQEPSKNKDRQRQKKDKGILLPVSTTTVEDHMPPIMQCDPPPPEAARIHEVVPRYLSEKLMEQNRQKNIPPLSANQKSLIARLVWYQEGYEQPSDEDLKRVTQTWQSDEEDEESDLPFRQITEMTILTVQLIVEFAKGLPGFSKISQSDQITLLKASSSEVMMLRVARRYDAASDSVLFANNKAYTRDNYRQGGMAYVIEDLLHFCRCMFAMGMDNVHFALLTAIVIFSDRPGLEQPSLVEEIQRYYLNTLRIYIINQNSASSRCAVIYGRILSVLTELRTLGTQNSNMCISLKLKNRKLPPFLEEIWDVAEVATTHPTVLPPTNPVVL
T1 sequence (P19793 1-462 partner): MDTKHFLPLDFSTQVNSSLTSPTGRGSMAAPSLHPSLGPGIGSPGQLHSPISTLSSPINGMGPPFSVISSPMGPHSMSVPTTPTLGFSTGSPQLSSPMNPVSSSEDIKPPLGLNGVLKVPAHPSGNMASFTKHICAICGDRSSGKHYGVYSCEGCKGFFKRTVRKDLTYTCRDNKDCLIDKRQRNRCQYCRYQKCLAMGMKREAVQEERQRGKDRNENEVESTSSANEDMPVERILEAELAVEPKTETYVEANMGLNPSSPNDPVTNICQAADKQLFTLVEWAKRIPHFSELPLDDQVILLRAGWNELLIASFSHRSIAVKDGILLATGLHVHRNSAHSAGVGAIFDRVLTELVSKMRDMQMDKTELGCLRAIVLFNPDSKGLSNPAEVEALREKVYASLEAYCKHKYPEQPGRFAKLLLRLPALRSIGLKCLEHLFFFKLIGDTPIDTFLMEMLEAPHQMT

[2] = molecular target: GAL4 DBD-CfEcR(DEF)/VP16AD-MmRXRE (Choristoneura fumiferana, UniProt O77240); assay: 13B3 Assay (CHO stable cell line, luciferase reporter); details: for Fold Induction, 13B3 Assay, 3.3 uM: 3.3 uM ligand; for Fold Induction, 13B3 Assay, 3.3 uM / Fold Induction, 13B3 Assay, 33 uM: RLU ligand treated / RLU DMSO treated cells; for Fold Induction, 13B3 Assay, 33 uM: 33 uM ligand; for 13B3 assay Rel Max FI: maximum fold induction at any concentration relative to that of GS-E ligand, CHO 13B3 cells; for fold induction at 3.3 µM: read-out: Fold Induction, 13B3 Assay, 3.3 uM
From the text: GAL4 DBD-CfEcR(DEF)/VP16AD-MmRXRE:
The wild-type D, E, and F domains from spruce budworm Choristoneura fumiferana EcR (“CfEcR-DEF”; SEQ ID NO: 1) were fused to a GALA DNA binding domain (“Gal4DBD1-147”; SEQ ID NO: 2) and placed under the control of the SV40e promoter of pM vector (PT3119-5, Clontech, Palo Alto, Calif.). The D and E domains from Mus Musculus RXR (“MmRXR-DE”; SEQ ID NO: 11) were fused to the transactivation domain from VP16 (“VP16AD”; SEQ ID NO: 6) and placed under the control of the SV40e promoter of the pVP16 vector (PT3127-5, Clontech, Palo Alto, Calif.).
CHO cells were transiently transfected with transcription cassettes for GAL4 DBD-CJEcR(DEF) and for VP16AD-MmRXRE controlled by SV40e promoters. Stably transfected cells were selected using Hygromycin. Individually isolated CHO cell clones were transiently transfected with a GALA RE-luciferase reporter (pFR-Luc, Stratagene, La Jolla, Calif.). The 13B3 clone was selected using Zeocin.
Cells were trypsinized and diluted to a concentration of 2.5×10^4 cells mL. 100 μL of cell suspension was placed in each well of a 96 well plate and incubated at 37° C. under 5% CO2 for 24 h. Ligand stock solutions were prepared in DMSO and diluted 300 fold for all treatments. Dose response testing consisted of 8 concentrations ranging from 33 μM to 0.01 μM.
Luciferase reporter gene expression was measured 48 h after cell treatment using Bright-Glo™ Luciferase Assay System from Promega (E2650). Luminescence was detected at room temperature using a Dynex MLX microtiter plate luminometer.
Each assay was conducted in two separate wells, and the two values were averaged. Fold inductions were calculated by dividing relative light units (“RLU”) in ligand treated cells with RLU in DMSO treated cells. EC50s were calculated from dose response data using a three-parameter logistic model.

[3] = read-out: Z3 assay EC50, HEK-293 Z3 cells, β-galactosidase reporter, average of two wells
[4] = read-out: 13B3 EC50, CHO 13B3 stable cell line, luciferase reporter, 48 h, average of two wells

| SMILES | Fold Induction, Z3 Assay, 3.3 uM ([1]; average of two wells) | Fold Induction, Z3 Assay, 33 uM ([1]; average of two wells) | Z3 assay Rel Max FI ([1]; HEK-293 Z3 cells) | EC50 [1, 3] | Fold Induction, 13B3 Assay, 3.3 uM ([2]; average of two wells) | Fold Induction, 13B3 Assay, 33 uM ([2]; average of two wells) | 13B3 assay Rel Max FI [2] | EC50 [2, 4] | EC50 [1] | fold induction at 3.3 µM [1] | fold induction at 33 µM [1] | EC50 [2] | fold induction at 3.3 µM [2] | fold induction at 33 µM ([2]; read-out: Fold Induction, 13B3 Assay, 33 uM) |
| --- | --- | --- | --- | --- | --- | --- | --- | --- | --- | --- | --- | --- | --- | --- |
| CCc1c(OC)cccc1C(=O)NN(C(=O)c1cccc(Br)c1)C(C)(C)C [RG-115038] | 600 | 321 | 1.064 | 0.55 µM | 4119 | 4970 | 1.172 | 1.74 µM |  |  |  |  |  |  |
| C=Cc1c(OC)cccc1C(=O)NN(C(=O)c1cc(F)c(Cl)cc1Cl)C(C)(C)C [RG-115534] | 168 | 249 | 0.463 | 2.75 µM |  | 211 |  |  |  |  |  |  |  |  |
| Cc1c(C(=O)NN(C(=O)c2cc(Cl)cc(Cl)c2)C(C)(C)C)cccc1N(C)C [RG-101316] | 1045 | 350 | 0.896 | 1.58 µM |  | 1280 |  |  |  |  |  |  |  |  |
| COc1ccc(C(=O)NN(C(=O)c2cc(Cl)cc(Cl)c2)C(C)(C)C)cc1 [RG-101376] | 1293 | 415 | 0.777 | 0.537 µM | 25656 | 7393 | 0.654 | 1.36 µM |  |  |  |  |  |  |
| CCC(N(NC(=O)c1cccc(C)c1C)C(=O)c1cccc(C)c1)C(C)(C)C (centres unmarked) [RG-104074] | 189 | 200 | 1.122 | 0.307 µM | 544 | 5378 | 0.812 | 0.865 µM |  |  |  |  |  |  |
| CCc1ccccc1C(=O)N(NC(=O)c1cccc(OC)c1C)C(C)(C)C [RG-101062] | 1127 | 391 | 0.992 | 2.57 µM |  | 319 |  |  |  |  |  |  |  |  |
| COc1cccc(C(=O)NN(C(=O)c2cc(C)cc(C)c2)C(C)(C)C)c1CS(C)(=O)=O [RG-115408, 2-methanesulfonylmethyl-3-methoxy-benzoic acid N′-tert-butyl-N′-(3,5-dimethyl-benzoyl)-hydrazide] |  |  | 0.01 |  |  |  | 0 |  | > 50 µM | 1 | 3 | > 50 µM | 1 |  |
| CCc1c(OC)cccc1C(=O)NN(C(=O)c1cc(C)cc(C=NO)c1)C(C)(C)C [RG-115625] | 265 | 1559 | 0.950 | 0.389 µM | 3 | 715 | 0.931 | 25.3 µM |  |  |  |  |  |  |
| CCc1c(OC)cccc1C(=O)NN(C(=O)c1cc(C)cc(C)c1)C(C)(C)COC [RG-115006, 2-ethyl-3-methoxy-benzoic acid N′-(3,5-dimethyl-benzoyl)-N′-(2-methoxy-1,1-dimethyl-ethyl)-hydrazide] |  |  | 1.031 |  |  |  | 0.890 |  | 0.275 µM | 415 | 1070 | 3.5 µM | 4180 | 3150 |
